In ChEMBL document CHEMBL1153236, “Non-aromatic A-ring replacement in the triaryl bis-sulfone CB2 receptor inhibitors” (Bioorg Med Chem Lett, 2010):

Species: Rattus norvegicus
Conditions: in vivo, 6 h

Compound: O=S(=O)(c1ccccc1F)c1cc(Cl)ccc1S(=O)(=O)N1CCC(CNS(=O)(=O)C(F)(F)F)CC1
- AUC: 1.9 µM

Compound: O=S(=O)(c1ccccn1)c1ccc(OC(F)(F)F)cc1S(=O)(=O)N1CCC2(CC1)CC2NS(=O)(=O)C(F)(F)F (stereo not drawn)
- AUC: 7.3 µM

Compound: O=S(=O)(c1ccccn1)c1ccc(Cl)cc1S(=O)(=O)N1CCC2(CC1)CC2NS(=O)(=O)C(F)(F)F (stereo not drawn)
- AUC: 6.1 µM
